In patent US12492193B2, “Pyrazole derivatives for the treatment of cystic fibrosis” (Fondazione Istituto Italiano Di Tecnologia, priority 2017, dated 2025):

Molecular target: T1, mutant CFTR (Homo sapiens, UniProt P13569, DEL508-508)
T1 construct: expressed in transfected cells
Test: Fluorescence (HS-YFP) assay for CFTR activity, corrector assay
Assay type: cell-based
Settings: CFBE41o- and FRT cells with stable expression of mutant CFTR, 24 h compound treatment
Outline: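 Corrector activity: 24 h compound treatment of HS-YFP/mutant-CFTR CFBE41o- or FRT cells, followed by 30 min forskolin 20 μM + genistein 50 μM at 37° C. Iodide influx (100 mM final) was tracked as fluorescence quenching, with dF/dt extrapolated by exponential fitting; EC50 values derived.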

T1 sequence (P13569 with tags, fused parts or gaps DEL508-508): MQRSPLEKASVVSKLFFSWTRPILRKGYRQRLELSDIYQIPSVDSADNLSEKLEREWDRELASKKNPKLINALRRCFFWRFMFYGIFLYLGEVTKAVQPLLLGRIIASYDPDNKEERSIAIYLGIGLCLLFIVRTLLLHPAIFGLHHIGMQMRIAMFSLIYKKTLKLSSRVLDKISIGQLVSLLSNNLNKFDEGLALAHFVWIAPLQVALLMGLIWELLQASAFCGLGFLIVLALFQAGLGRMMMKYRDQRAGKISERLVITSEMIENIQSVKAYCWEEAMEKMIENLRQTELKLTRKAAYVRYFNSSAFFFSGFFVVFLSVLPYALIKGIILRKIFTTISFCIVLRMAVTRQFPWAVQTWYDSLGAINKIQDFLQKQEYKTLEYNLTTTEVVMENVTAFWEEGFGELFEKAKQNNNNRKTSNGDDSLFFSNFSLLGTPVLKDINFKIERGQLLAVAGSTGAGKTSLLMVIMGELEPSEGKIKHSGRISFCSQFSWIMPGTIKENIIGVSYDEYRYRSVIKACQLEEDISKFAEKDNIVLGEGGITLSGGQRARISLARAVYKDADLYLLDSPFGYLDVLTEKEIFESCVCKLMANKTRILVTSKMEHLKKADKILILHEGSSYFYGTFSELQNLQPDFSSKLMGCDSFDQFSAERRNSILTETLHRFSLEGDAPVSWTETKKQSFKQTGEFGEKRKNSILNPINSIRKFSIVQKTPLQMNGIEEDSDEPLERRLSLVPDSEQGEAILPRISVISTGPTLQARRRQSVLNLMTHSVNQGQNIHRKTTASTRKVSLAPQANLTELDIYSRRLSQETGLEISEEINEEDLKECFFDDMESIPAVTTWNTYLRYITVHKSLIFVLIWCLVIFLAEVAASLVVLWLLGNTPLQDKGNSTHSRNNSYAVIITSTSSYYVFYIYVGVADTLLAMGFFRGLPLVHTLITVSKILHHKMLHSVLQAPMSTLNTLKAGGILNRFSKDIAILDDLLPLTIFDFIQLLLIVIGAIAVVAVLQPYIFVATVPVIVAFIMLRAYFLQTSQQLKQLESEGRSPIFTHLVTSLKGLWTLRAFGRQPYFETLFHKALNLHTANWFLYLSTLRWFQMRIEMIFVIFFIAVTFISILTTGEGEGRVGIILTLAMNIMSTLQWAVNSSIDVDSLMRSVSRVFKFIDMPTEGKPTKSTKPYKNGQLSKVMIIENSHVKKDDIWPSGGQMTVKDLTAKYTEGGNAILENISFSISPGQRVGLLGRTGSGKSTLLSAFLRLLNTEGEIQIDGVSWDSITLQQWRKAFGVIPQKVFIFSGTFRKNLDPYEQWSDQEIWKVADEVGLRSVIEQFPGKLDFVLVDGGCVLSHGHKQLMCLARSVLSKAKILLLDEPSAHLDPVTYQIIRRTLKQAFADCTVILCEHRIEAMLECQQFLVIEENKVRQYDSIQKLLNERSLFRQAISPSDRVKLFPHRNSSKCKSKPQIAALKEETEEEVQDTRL

SMILES	EC50 [nM]
Cc1cc(C)n(-c2cccc(S(=O)(=O)N(C)c3ccc4c(c3)OCCO4)c2)n1 [compound 017, N-(2,3-dihydro-1,4-benzodioxin-6-yl)-3-(3,5-dimethylpyrazol-1-yl)-N-methyl-benzenesulfonamide]	> 2000
Cc1nn(-c2cccc(C(=O)Nc3ccc4c(c3)NCCO4)c2)c(C)c1Cl [Int-016, 3-(4-Chloro-3,5-dimethyl-pyrazol-1-yl)-N-(3,4-dihydro-2H-1,4-benzoxazin-6-yl)benzamide]	> 2000
CC(C)(C)OC(=O)c1ccc(OCc2c(Cl)c(C(F)(F)F)nn2-c2cccc(C(=O)Nc3ccc4c(c3)OC(F)(F)O4)c2)cc1 [Int-172, Tert-butyl 4-[[4-chloro-2-[3-[(2,2-difluoro-1,3-benzodioxol-5-yl)carbamoyl]phenyl]-5-(trifluoromethyl)pyrazol-3-yl]methoxy]benzoate]	> 2000
Cc1nn(-c2cccc(C(=O)N(C)c3ccc4c(c3)OCO4)c2)c(CO)c1Cl [compound 105, N-(1,3-benzodioxol-5-yl)-3-[4-chloro-5-(hydroxylmethyl)-3-methyl-pyrazol-1-yl]-N-methyl-benzamide]	1000 to 2000
Cc1noc2cc(N(C)C(=O)c3cccc(-n4nc(C(F)(F)F)cc4OCc4ccc(C(=O)O)cc4)c3)ccc12 [compound 263, 4-[[2-[3-[Methyl-(3-methyl-1,2-benzoxazol-6-yl)carbamoyl]phenyl]-5-(trifluoromethyl)pyrazol-3-yl]oxymethyl]benzoic acid]	> 2000
COc1ccccc1-c1cc(C(F)(F)F)nn1-c1cccc(C(=O)N(C)c2ccc3c(c2)OCO3)c1 [compound 184, N-(1,3-Benzodioxol-5-yl)-3-[5-(2-methoxyphenyl)-3-(trifluoromethyl)pyrazol-1-yl]-N-methyl-benzamide]	< 1000
COc1ccccc1-c1c(Cl)c(C(F)(F)F)nn1-c1cccc(C(=O)N(C)c2ccc3c(c2)OCO3)c1 [compound 183, N-(1,3-Benzodioxol-5-yl)-3-[4-chloro-5-(2-methoxyphenyl)-3-(trifluoromethyl)pyrazol-1-yl]-N-methyl-benzamide]	< 1000
Cc1nc2cc(Cl)c(N(C)C(=O)c3cccc(-n4nc(C(F)(F)F)c(Cl)c4C4CC4)c3)cc2o1 [compound 139, 3-[4-Chloro-5-cyclopropyl-3-(trifluoromethyl)pyrazol-1-yl]-N-(5-chloro-2-methyl-1,3-benzoxazol-6-yl)-N-methyl-benzamide]	< 1000
Cc1cc2ncc(N(C)C(=O)c3cccc(-n4nc(C(F)(F)F)c(Cl)c4COc4ccc(C(=O)O)cc4)c3)cn2n1 [compound 238, 4-[[4-Chloro-2-[3-[methyl-(2-methylpyrazolo[1,5-a]pyrimidin-6-yl)carbamoyl]phenyl]-5-(trifluoromethyl)pyrazol-3-yl]methoxy]benzoic acid]	1000 to 2000
CN(C(=O)c1cccc(-n2cccn2)c1)c1ccc2c(c1)OCCO2 [compound 010, N-(2,3-Dihydro-1,4-benzodioxin-6-yl)-N-methyl-3-pyrazol-1-yl-benzamide]	> 2000
CN(C(=O)c1cccc(-n2nc(C(F)(F)F)cc2OCc2ccc(C(=O)O)cc2)c1)c1ccc2c(c1)OC(F)(F)O2 [compound 197, 4-[[2-[3-[(2,2-difluoro-1,3-benzodioxol-5-yl)-methyl-carbamoyl]phenyl]-5-(trifluoromethyl)pyrazol-3-yl]oxymethyl]benzoic acid]	< 1000
CN(C(=O)c1cccc(-n2nc(C(F)(F)F)cc2OCc2ccc(C(=O)O)cc2)c1)c1ccc2c(c1)OCC2 [compound 262, 4-[[2-[3-[2,3-Dihydrobenzofuran-6-yl(methyl)carbamoyl]phenyl]-5-(trifluoromethyl)pyrazol-3-yl]oxymethyl]benzoic acid]	< 1000
Cc1nc2cc(F)c(N(C)C(=O)c3cccc(-n4nc(C(F)(F)F)cc4OCc4ccc(C(=O)OC(C)(C)C)cc4)c3)cc2o1 [compound 189, Tert-butyl 4-[[2-[3-[(5-fluoro-2-methyl-1,3-benzoxazol-6-yl)-methyl-carbamoyl]phenyl]-5-(trifluoromethyl)pyrazol-3-yl]oxymethyl]benzoate]	< 1000
